From PMC9602792, “Preclinical evaluation of the epithelial sodium channel inhibitor AZD5634 and implications on human translation” (American Journal of Physiology - Lung Cellular and …, 2022)
pEC50: −log10 of the molar value.

Biological target: T1, rat ENaC (Rattus norvegicus, UniProt P37089+P37090+P37091)
T1 construct: from tissue; host or cells: kidney distal tubule of anesthetized female Wistar rats, in vivo
T1 sequence (P37089 1-698): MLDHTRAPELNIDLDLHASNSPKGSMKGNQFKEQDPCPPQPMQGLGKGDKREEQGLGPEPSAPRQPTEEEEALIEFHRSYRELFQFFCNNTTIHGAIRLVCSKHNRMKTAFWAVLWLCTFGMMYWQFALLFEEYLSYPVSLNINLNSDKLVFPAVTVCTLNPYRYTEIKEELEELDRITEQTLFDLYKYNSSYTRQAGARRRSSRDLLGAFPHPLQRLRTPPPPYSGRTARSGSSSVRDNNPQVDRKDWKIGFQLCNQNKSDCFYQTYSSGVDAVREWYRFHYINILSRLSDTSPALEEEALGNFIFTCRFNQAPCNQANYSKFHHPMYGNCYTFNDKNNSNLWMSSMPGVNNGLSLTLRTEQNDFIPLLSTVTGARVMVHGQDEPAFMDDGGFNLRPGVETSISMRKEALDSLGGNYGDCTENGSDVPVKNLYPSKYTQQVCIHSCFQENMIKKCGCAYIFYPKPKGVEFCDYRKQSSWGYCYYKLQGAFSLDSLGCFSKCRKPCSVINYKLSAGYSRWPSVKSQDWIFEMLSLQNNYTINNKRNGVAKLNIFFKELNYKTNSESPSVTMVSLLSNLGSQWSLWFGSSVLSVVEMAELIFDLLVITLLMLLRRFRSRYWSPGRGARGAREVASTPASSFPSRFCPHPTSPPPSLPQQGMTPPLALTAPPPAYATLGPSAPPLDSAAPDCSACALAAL
T1 sequence (P37090 1-638): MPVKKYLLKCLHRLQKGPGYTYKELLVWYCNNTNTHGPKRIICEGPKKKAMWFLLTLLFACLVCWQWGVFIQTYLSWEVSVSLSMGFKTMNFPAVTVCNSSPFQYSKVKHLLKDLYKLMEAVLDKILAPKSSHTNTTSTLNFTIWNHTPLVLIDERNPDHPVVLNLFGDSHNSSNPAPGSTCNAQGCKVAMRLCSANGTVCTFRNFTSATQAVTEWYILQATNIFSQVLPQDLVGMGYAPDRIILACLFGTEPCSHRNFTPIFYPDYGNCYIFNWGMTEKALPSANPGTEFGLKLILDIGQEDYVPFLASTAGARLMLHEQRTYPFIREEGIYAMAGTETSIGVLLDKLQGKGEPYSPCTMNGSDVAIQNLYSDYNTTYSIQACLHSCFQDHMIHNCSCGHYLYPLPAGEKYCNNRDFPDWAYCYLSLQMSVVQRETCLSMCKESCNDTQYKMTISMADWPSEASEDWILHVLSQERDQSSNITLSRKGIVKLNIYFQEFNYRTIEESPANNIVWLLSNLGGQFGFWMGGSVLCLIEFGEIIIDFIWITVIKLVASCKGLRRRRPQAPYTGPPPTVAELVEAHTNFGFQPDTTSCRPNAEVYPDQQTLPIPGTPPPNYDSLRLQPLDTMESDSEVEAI
T1 sequence (P37091 1-650): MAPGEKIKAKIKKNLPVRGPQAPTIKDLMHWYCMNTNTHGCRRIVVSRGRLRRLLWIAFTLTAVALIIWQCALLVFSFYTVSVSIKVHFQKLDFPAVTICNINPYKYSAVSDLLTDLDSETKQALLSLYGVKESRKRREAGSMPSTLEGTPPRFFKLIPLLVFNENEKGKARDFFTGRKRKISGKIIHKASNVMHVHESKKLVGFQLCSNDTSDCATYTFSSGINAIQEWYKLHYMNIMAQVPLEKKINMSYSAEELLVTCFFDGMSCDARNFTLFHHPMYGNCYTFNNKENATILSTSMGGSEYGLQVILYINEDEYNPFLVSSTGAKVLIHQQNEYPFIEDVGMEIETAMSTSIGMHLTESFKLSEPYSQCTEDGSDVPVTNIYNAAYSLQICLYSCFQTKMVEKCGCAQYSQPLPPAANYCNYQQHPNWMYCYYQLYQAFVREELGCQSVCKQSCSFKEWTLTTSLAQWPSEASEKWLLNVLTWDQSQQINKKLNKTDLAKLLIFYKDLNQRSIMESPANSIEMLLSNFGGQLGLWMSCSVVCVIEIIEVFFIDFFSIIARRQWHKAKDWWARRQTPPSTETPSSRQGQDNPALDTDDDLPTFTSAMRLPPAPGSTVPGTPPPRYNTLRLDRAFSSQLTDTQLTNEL
Assay: Rat potency from renal electrolyte excretion during i.v. infusion
Format: in vivo
Conditions: read-out: potency for rat ENaC (EC50, inhibiting 50% of the potassium excretion), normal rats, free concentrations, estimated
Method: The potency of AZD5634 was also assessed in vivo in rats. Female Wistar rats were anesthetized by means of spontaneously breathing isoflurane (induction concentration of 5% followed by 2%). A catheter was positioned in the carotid artery for blood sampling and mean arterial blood pressure and heart rate were measured. […] The urinary bladder was catheterized for urine collection. The rats were left to stabilize for at least 30 min after surgery during constant basal infusions before any test compound or vehicle infusion was initiated. Urine was collected over 20-min periods; two at baseline (i.e., preexposure), followed by three 30 min exposures of increasing doses of test compound or vehicle, where urine was collected over the last 20 min for each dose. Additional urine was collected during the washout period (0–20, 20–40, and 40–60 min after cessation of the infusion protocol). Blood samples were collected 5 min before the end of each urine collection period for electrolyte evaluation (iSTAT analyzer, Abbott Laboratories Inc) and plasma concentration of drug (LC-MSMS). Urine production, electrolytes (ABL700, Radiometer Medical ApS, Brønshøj, Denmark, for urine), as well as concentration of test compound (LC-MSMS) were evaluated.
Rat electrolyte data were analyzed by means of repeated-measures ANCOVA (SAS v.9).

A pEC50 of 8.07 was found for AZD5634 in this work.
